pIC50: −log10 of the molar value. Read-outs that look alike come from different tables or passages of the source.
Legend:
LCLC97TM1 = LCLC97TM1 proliferation assay; format: cell-based; details: read-out: LCLC97TM1 proliferation assay, EC50 [M] (arithmetic mean)
ZR-75-1 cells = assay: ZR-75-1 proliferation assay; format: cell-based; details: Alamar Blue, read-out: ZR75-1 proliferation assay, EC50 [M] (arithmetic mean)
Description: For compound characterization cell survival assays were routinely run in two cell lines. ZR-75-1 is a breast carcinoma cell line containing a focal KAT6A amplification and high KAT6A protein expression. Proliferation of this cell line is inhibited upon treatment with KAT6A inhibitors. As a negative control cell line MDA-MB-436 were used. These cells carry a […] deletion of the KAT6A gene, have a low KAT6A protein expression and are not growth inhibited upon treatment with KAT6A inhibitors.
For measurements cell lines were plated at the below indicated concentration per […] in 96-well plates in a humidified incubator at 37° C. and 5% CO2.
ZR-75-1 (ATCC, CRL-1500; breast carcinoma); 3000 cells per well; culture medium: RPMI 1640 (Biochrom #FG 1215) medium containing 2.5% FBS (Biochrom #S0615).
Each sample was prepared as triplicate and rim wells were excluded. Plates were incubated at 37° C. and 5% CO2 for 144 h. Cell viability was measured by adding 10 μL of Alamar Blue Reagent (Invitrogen #DAL 1100) and plates were incubated for 2 h at 37° C. and 5% CO2. Fluorescence was measured at 590 nm wavelength with a Tecan Spark or Victor X3 MTP-Reader (PerkinElmer).

[1] = test system: ESR1 transcription in MVLN cells; assay: MVLN reporter assay: repression of ESR1 transcription (luciferase signal); format: cell-based; details: luciferase signal after 24 h, read-out: MVLN reporter assay, IC50 [M] (arithmetic mean)
In short: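 To control for cell loss, Alamar Blue (2 h, 530/590 nm) precedes the 24 h luciferase measurement. The reporter is an ERE from the Xenopus vitellogenin A2 gene driving luciferase, stably transfected into ER-expressing MVLN cells; duplicate samples.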

[2] = target: T1, Recombinant human His-tagged Kat6a protein (amino acids 194-810) (Homo sapiens, UniProt Q92794); assay: Kat6a activity assay (TR-FRET, acetylation of Histone-H4-derived peptide); format: biochemical; details: 60 mins at 22° C., 220 nM H4 peptide, 600 nM Acetyl Coenzyme A, read-out: KAT6A - DPF/HAT domain IC50 [mol/l] (arithmetic mean)
T1 construct: Kat6a protein (amino acids 194-810); His
T1 sequence (Q92794 194-810): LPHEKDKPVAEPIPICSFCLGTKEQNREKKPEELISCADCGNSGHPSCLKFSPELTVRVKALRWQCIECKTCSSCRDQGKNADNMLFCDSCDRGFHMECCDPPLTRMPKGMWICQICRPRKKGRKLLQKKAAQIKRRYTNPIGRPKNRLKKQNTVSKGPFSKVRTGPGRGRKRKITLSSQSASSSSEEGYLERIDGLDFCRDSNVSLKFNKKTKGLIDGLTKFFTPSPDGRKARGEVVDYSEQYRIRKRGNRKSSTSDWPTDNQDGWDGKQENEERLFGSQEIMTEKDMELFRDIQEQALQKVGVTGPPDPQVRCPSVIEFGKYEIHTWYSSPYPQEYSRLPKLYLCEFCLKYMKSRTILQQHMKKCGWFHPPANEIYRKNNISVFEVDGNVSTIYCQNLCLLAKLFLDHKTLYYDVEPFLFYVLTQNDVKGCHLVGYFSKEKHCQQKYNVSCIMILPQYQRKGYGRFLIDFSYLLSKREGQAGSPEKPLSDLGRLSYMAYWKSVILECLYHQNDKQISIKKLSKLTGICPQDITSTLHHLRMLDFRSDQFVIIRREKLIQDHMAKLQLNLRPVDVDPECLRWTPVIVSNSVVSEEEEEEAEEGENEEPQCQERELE

[3] = target: T2, Recombinant human GST-tagged Kat6b protein (431-end) (Homo sapiens, UniProt Q8WYB5); assay: Kat6b activity assay (TR-FRET, acetylation of Histone-H4-derived peptide); format: biochemical; details: 30 mins at 22° C., 500 nM H4 peptide, 600 nM Acetyl Coenzyme A, read-out: KAT6B activity assay IC50 [mol/l] (arithmetic mean)
T2 construct: Kat6b protein (431-end, N-terminal GST-tag); GST (N)
T2 sequence (Q8WYB5 431-2073): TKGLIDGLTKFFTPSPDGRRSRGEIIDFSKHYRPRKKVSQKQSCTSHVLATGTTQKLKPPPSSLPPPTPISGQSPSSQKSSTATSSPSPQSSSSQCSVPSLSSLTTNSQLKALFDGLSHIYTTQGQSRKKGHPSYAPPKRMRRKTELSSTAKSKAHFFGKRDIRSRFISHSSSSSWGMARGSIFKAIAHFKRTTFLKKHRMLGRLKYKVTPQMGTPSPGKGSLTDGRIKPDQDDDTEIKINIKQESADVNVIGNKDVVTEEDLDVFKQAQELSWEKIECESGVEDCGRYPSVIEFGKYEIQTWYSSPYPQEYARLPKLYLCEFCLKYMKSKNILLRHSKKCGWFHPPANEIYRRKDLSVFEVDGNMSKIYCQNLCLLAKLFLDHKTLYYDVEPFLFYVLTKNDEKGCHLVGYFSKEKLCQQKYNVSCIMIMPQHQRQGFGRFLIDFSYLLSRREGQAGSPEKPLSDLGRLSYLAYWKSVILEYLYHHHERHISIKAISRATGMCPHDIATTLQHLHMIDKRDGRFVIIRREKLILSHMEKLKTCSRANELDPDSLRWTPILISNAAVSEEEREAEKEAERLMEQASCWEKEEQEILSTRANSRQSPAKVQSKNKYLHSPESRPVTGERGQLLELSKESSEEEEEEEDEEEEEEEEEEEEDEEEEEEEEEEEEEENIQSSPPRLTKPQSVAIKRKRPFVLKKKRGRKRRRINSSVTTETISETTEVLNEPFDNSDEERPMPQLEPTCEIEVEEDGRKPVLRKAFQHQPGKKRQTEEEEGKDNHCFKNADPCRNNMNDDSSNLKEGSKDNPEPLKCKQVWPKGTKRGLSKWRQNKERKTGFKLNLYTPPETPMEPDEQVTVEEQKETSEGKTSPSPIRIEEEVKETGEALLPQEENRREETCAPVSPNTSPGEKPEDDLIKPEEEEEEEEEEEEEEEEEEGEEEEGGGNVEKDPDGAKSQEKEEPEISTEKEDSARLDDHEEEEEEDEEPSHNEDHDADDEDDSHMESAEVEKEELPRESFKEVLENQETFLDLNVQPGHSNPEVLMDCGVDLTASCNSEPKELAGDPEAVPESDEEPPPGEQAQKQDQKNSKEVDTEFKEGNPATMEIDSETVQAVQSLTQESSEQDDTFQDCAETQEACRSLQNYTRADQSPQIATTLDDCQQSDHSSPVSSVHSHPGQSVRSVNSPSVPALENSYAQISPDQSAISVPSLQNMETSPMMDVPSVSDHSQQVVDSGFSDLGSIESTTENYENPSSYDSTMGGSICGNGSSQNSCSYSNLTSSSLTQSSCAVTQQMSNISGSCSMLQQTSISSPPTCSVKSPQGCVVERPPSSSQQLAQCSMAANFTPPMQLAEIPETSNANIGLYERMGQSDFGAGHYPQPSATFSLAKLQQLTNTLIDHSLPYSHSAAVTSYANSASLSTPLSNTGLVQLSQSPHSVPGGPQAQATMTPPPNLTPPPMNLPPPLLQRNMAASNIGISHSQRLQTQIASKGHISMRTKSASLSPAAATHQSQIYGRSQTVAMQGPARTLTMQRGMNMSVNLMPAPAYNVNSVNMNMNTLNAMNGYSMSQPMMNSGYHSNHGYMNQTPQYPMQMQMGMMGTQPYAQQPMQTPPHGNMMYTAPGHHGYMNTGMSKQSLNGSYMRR
Procedure: Kat6b inhibitory activities of the compounds described in the present invention were quantified using a Fluorescence Resonance Energy Transfer (TR-FRET) assay which measures acetylation of a synthetic, biotinylated Histone-H4-derived peptide by the enzyme.
In this case 50 nl DMSO were used instead of compounds. […] IC50 values were determined by regression analysis based on a 4 parameter equation (minimum, maximum, ICM, Hill; Y=Max+(Min−Max)/(1+(X/ICso) Hill) using the Screener Software (Genedata).

MDA-MB-436 cells = assay: MDA-MB-436 proliferation assay (negative control cell line); format: cell-based; details: 144 h, Alamar Blue, read-out: MDA-MB-436 proliferation assay, EC50 [M] (arithmetic mean)
In short: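 MDA-MB-436 cells (KAT6A deletion, low KAT6A protein) seeded at 3000 cells/well in DMEM/Ham's F12 with 2.5% FBS, treated in triplicate for 144 h at 37° C, 5% CO2. Viability read by Alamar Blue fluorescence at 590 nm after 2 h.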

[4] = Homo sapiens, LCLC-97TM1, LCLC97TM1

| IC50 ([1]; Homo sapiens, MVLN, 24 h) | pIC50 [2] | pIC50 [3] | EC50 (MDA-MB-436 cells; Homo sapiens) | IC50 [1] | EC50 (MDA-MB-436 cells) | Compound | EC50 (LCLC97TM1; [4]) | EC50 (ZR-75-1 cells; Homo sapiens, ZR-75-1, 144 h) | EC50 (LCLC97TM1; LCLC97TM1) | EC50 (ZR-75-1 cells; 144 h) |
| --- | --- | --- | --- | --- | --- | --- | --- | --- | --- | --- |
| 9.04e-09 M | 8.73 | 8.25 | > 2e-05 M |  |  | CCOc1ccc(C(C)CC)cc1S(=O)(=O)NC(=O)c1cc2c(F)cc(N3CCC3)cc2o1 (racemic) [Example 207, 6-(Azetidin-1-yl)-N-[(5-sec-butyl-2-ethoxyphenyl)sulfonyl]-4-fluoro-1-benzofuran-2-carboxamide (rac)] | 4.29e-08 M | 1.03e-07 M |  |  |
| 1.83e-08 M | 8.37 | 7.54 | > 2e-05 M |  |  | CC(C)c1ccc(OCC2CC2(F)F)c(S(=O)(=O)NC(=O)c2cc3c(F)cc(N4CCC4)cc3o2)c1 (racemic) [Example 231, 6-(Azetidin-1-yl)-N-((2-((2,2-difluorocyclopropyl)methoxy)-5-isopropylphenyl)sulfonyl)-4-fluorobenzofuran-2-carboxamide (rac)] | 1.99e-07 M | 1.58e-07 M |  |  |
| 3.89e-08 M | 8.06 | 7.68 | > 2e-05 M |  |  | CCOc1cccc(OC)c1S(=O)(=O)NC(=O)c1cc2c(F)cc(N3CCC3)cc2o1 [Example 1, 6-(Azetidin-1-yl)-N-(2-ethoxy-6-methoxybenzene-1-sulfonyl)-4-fluoro-1-benzofuran-2-carboxamide] | 2.13e-07 M | 7.18e-08 M |  |  |
| 5.54e-08 M | 7.34 | 7.02 | > 2e-05 M |  |  | CCOc1ccccc1S(=O)(=O)NC(=O)c1cc2c(F)cc(N3CCC3)cc2o1 [Example 2, 6-(Azetidin-1-yl)-N-(2-ethoxybenzene-1-sulfonyl)-4-fluoro-1-benzofuran-2-carboxamide] |  | 1.64e-07 M | 3.38e-07 M |  |
| 3.85e-07 M | 6.84 | 6.53 | > 2e-05 M |  |  | O=C(NS(=O)(=O)c1ccccc1-c1ccccc1)c1cc2ccc(N3CCC3)cc2o1 [Example 26, 6-(Azetidin-1-yl)-N-([1,1′-biphenyl]-2-sulfonyl)-1-benzofuran-2-carboxamide] | 3.9e-06 M | 5.06e-07 M |  |  |
| 2.1e-08 M | 8.02 | 7.87 | > 2e-05 M |  |  | CC(C)c1cccnc1S(=O)(=O)NC(=O)c1cc2c(F)cc(N3CCC3)cc2o1 [Example 79, 6-(Azetidin-1-yl)-4-fluoro-N-[3-(propan-2-yl)pyridine-2-sulfonyl]-1-benzofuran-2-carboxamide] | 3.9e-08 M | 3.61e-08 M |  |  |
| 1.33e-07 M | 6.56 | 6.07 |  |  |  | CCOc1ccccc1S(=O)(=O)NC(=O)c1cc2ccc(N3CC(F)C3)cc2o1 [Example 107, N-(2-Ethoxybenzene-1-sulfonyl)-6-(3-fluoroazetidin-1-yl)-1-benzofuran-2-carboxamide] | 9.16e-07 M | 4.1e-07 M |  |  |
| 1.08e-08 M | 8.35 | 7.94 | > 2e-05 M |  |  | CCOc1ccc(C(C)(C)C)cc1S(=O)(=O)NC(=O)c1cc2c(F)cc(N3CC(F)C3)cc2o1 [Example 113, N-(5-tert-butyl-2-ethoxybenzene-1-sulfonyl)-4-fluoro-6-(3-fluoroazetidin-1-yl)-1-benzofuran-2-carboxamide] | 3.7e-08 M | 2.94e-08 M |  |  |
|  | 7.25 | 6.55 |  | 9.43e-08 M | > 2e-05 M | CCOc1ccccc1S(=O)(=O)NC(=O)c1cc2c(F)cc(N3CCC3)cc2o1 [Example 126, Sodium [6-(azetidin-1-yl)-4-fluoro-1-benzofuran-2-carbonyl](2-ethoxybenzene-1-sulfonyl)azanide] |  |  | 1.12e-06 M | 3.07e-07 M |
| 1.9e-08 M | 8.09 | 7.82 | > 2e-05 M |  |  | CCOc1ccc(C(C)C)cc1S(=O)(=O)NC(=O)c1cc2c(F)cc(N3CCC3)cc2o1 [Example 128, 6-(Azetidin-1-yl)-N-[2-ethoxy-5-(propan-2-yl)benzene-1-sulfonyl]-4-fluoro-1-benzofuran-2-carboxamide] | 2.2e-07 M | 6.73e-08 M |  |  |
| 2.74e-08 M | 7.44 | 7.29 | > 2e-05 M |  |  | CC(C)Oc1ccccc1S(=O)(=O)NC(=O)c1cc2c(F)cc(N3CCC3)cc2o1 [Example 129, 6-(Azetidin-1-yl)-4-fluoro-N-{2-[(propan-2-yl)oxy]benzene-1-sulfonyl}-1-benzofuran-2-carboxamide] | 4.11e-07 M | 1.42e-07 M |  |  |
| 3.23e-08 M | 7.86 | 7.71 | > 2e-05 M |  |  | Cc1ccc2cccc(S(=O)(=O)NC(=O)c3cc4c(F)cc(N5CCC5)cc4o3)c2n1 [Example 130, 6-(Azetidin-1-yl)-4-fluoro-N-(2-methylquinoline-8-sulfonyl)-1-benzofuran-2-carboxamide] | 2.36e-07 M | 8.86e-08 M |  |  |
| 3.83e-08 M | 7.63 | 7.63 | > 2e-05 M |  |  | O=C(NS(=O)(=O)c1ccccc1OC1CC1)c1cc2c(F)cc(N3CCC3)cc2o1 [Example 131, 6-(Azetidin-1-yl)-N-[2-(cyclopropyloxy)benzene-1-sulfonyl]-4-fluoro-1-benzofuran-2-carboxamide] | 7.53e-08 M | 2.09e-07 M |  |  |
| 5.97e-09 M | 8.37 | 8.01 | > 2e-05 M |  |  | COc1ccc(C(C)(C)C)cc1S(=O)(=O)NC(=O)c1cc2c(F)cc(N3CC(F)C3)cc2o1 [Example 150, N-(5-tert-butyl-2-methoxybenzene-1-sulfonyl)-4-fluoro-6-(3-fluoroazetidin-1-yl)-1-benzofuran-2-carboxamide] | 4.58e-08 M | 5.78e-08 M |  |  |
| 1.55e-08 M | 8.24 | 7.86 | > 2e-05 M |  |  | CCOc1ccc(C(C)C)cc1S(=O)(=O)NC(=O)c1cc2c(F)cc(N3CC(F)C3)cc2o1 [Example 151, N-[2-ethoxy-5-(propan-2-yl)benzene-1-sulfonyl]-4-fluoro-6-(3-fluoroazetidin-1-yl)-1-benzofuran-2-carboxamide] | 6.63e-08 M | 5.67e-08 M |  |  |
| 3.69e-08 M | 7.86 | 7.69 | > 2e-05 M |  |  | Cc1ccc2cccc(S(=O)(=O)NC(=O)c3cc4c(F)cc(N5CC(F)C5)cc4o3)c2n1 [Example 152, 4-Fluoro-6-(3-fluoroazetidin-1-yl)-N-(2-methylquinoline-8-sulfonyl)-1-benzofuran-2-carboxamide] | 1.63e-07 M | 7.66e-08 M |  |  |
| 1.11e-07 M | 8.29 | 7.70 | > 2e-05 M |  |  | COc1ccc(-c2cn(C)nc2C)cc1S(=O)(=O)NC(=O)c1cc2c(F)cc(N3CCC3)cc2o1 [Example 195, 6-(Azetidin-1-yl)-N-[5-(1,3-dimethyl-1H-pyrazol-4-yl)-2-methoxybenzene-1-sulfonyl]-4-fluoro-1-benzofuran-2-carboxamide] | 8.37e-07 M | 1.99e-07 M |  |  |
| 2.43e-08 M | 8.41 | 7.69 |  |  |  | CC(C)c1ccc(OCC2CC2)c(S(=O)(=O)NC(=O)c2cc3c(F)cc(N4CCC4)cc3o2)c1 [Example 214, 6-(azetidin-1-yl)-N-[2-(cyclopropylmethoxy)-5-isopropyl-phenyl]sulfonyl-4-fluoro-benzofuran-2-carboxamide] | 5.77e-07 M | 4.47e-07 M |  |  |

— patent US20240279207A1, “SUBSTITUTED ACYL SULFONAMIDES FOR TREATING CANCER” (The Broad Institute, Inc., priority 2020, published 2024)
